These results are taken from patent US20040002425A1, “Triketone derivatives and herbicides” (Idemitsu Kosan Co., Ltd., priority 1998, published 2004).

This data set relates to Transplanted paddy rice plant. Description: Biological Test 1 (treatment on the 3rd day after transplantation): chemical injury to paddy rice. The class given is in vivo. On the set-up: scale not given here. The note with it: Treatment performed 3 days after transplantation. On the procedure: (1) Preparation of Herbicide
Talc (57 parts by weight) and bentonite (40 parts by weight), both serving as carriers, and sodium alkylbenzenesulfate (3 parts by weight) serving as a surfactant were homogeneously ground and mixed to thereby obtain a carrier for water-dispersible powder.
Subsequently, to the water-dispersible powder (90 parts by weight), the triketone derivative (compound No. A-1) produced in Example I-1 (10 parts by weight) was added, and the resultant mixture was homogeneously ground and mixed to thereby obtain a herbicide.
(i) Biological Test 1 (Soaking in Water/Treatment on the 3rd Day After Transplantation)
A Wagner pot (1/2000 are) was filled with paddy soil, and seeds of barnyard grass were planted on the surface layer of the soil, and further, rice seedlings grown to the 2.5-leaf stage were transplanted.
Subsequently, water was poured in the pot to a height of 3 cm above the soil surface, and placed in a greenhouse where the temperature was maintained at 20-25° C., to thereby grow the plant under suitable conditions.
On the 3rd day after transplantation, the herbicide prepared in (1) above was applied to the plant in a predetermined amount. On the 30th day after treatment with the herbicide, weed-killing ratio, herbicidal effect, and extent of chemical injury to paddy rice were examined.
In Biological tests 1 and 2, herbicidal effect and extent of chemical injury were evaluated according to the below-described standards.
3) Chemical Injury to Paddy Rice
Chemical injury to paddy rice was evaluated according to the following criteria.

The mark [1] stands for this setting: dose 100 g/ha, examined on the 30th day after treatment.
[2] abbreviates: dose 200 g/ha, examined on the 30th day after treatment.

In the case of `O=C1CCCC(O)=C1C(=O)c1ccc2c(c1Cl)CCS2(=O)=O` [A-1, 4-chloro-5-(1,3-dioxocyclohexan-2-yl)carbonyl-2,3-dihydrobenzothiophene-1,1-dioxide], the “Chemical injury, Transplanted paddy rice plant” value (shortened to “Chemical injury”) runs as follows: under setting [1], 0; under setting [2], 0.

Turning to `Cc1c(C(=O)C2=C(O)CCCC2=O)ccc2c1CCS2(=O)=O` [A-2, 4-methyl-5-(1,3-dioxocyclohexan-2-yl)carbonyl-2,3-dihydrobenzothiophene-1,1-dioxide], the “Chemical injury” value by setting is: under setting [1], 0; under setting [2], 0.

Regarding `Cc1cc(C(=O)C2=C(O)CCCC2=O)c(Cl)c2c1S(=O)(=O)CC2` [A-3, 4-chloro-7-methyl-5-(1,3-dioxocyclohexan-2-yl) carbonyl-2,3-dihydrobenzothiophene-1,1-dioxide], the “Chemical injury” value worked out at 1 under setting [1] and 3 under setting [2].

For the compound `Cc1cc(C(=O)C2=C(O)CCCC2=O)c(C)c2c1S(=O)(=O)CC2` [A-4, 4,7-dimethyl-5-(1,3-dioxocyclohexan-2-yl)carbonyl-2,3-dihydrobenzothiophene-1,1-dioxide], the “Chemical injury” value under setting [1] was determined as 0 and the “Chemical injury” value under setting [2] amounted to 1.

On to `COc1c(C(=O)C2=C(O)CCCC2=O)ccc2c1CCS2(=O)=O` [A-5, 4-methoxy-5-(1,3-dioxocyclohexan-2-yl)carbonyl-2,3-dihydrobenzothiophene-1,1-dioxide], for which the “Chemical injury” value reads like this: under setting [1], 0; under setting [2], 0.

In the case of `CSc1c(C(=O)C2=C(O)CCCC2=O)ccc2c1CCS2(=O)=O` [A-6, 4-methylthio-5-(1,3-dioxocyclohexan-2-yl)carbonyl-2,3-dihydrobenzothiophene-1,1-dioxide], the “Chemical injury” value reads like this: under setting [1], 1; under setting [2], 3.

As to `CC1CCC(O)=C(C(=O)c2ccc3c(c2Cl)CCS3(=O)=O)C1=O` (centres unmarked) [A-7, 4-chloro-5-(4-methyl-1,3-dioxocyclohexan-2-yl)carbonyl-2,3-dihydrobenzothiophene-1,1-dioxide], the “Chemical injury” value is, setting by setting: under setting [1], 1; under setting [2], 2.

Turning to `CC1(C)CCC(O)=C(C(=O)c2ccc3c(c2Cl)CCS3(=O)=O)C1=O` [A-8, 4-chloro-5-(4,4-dimethyl-1,3-dioxocyclohexan-2-yl)carbonyl-2,3-dihydrobenzothiophene-1,1-dioxide], the “Chemical injury” value is 1 under setting [1] and 3 under setting [2].

For `CC1(C)CC(=O)C(C(=O)c2ccc3c(c2Cl)CCS3(=O)=O)=C(O)C1` [A-9, 4-chloro-5-(5,5-dimethyl-1,3-dioxocyclohexan-2-yl)carbonyl-2,3-dihydrobenzothiophene-1,1-dioxide], the “Chemical injury” value is 1 under setting [1] and 3 under setting [2].

As to `Cc1cc(C(=O)C2=C(O)CC(C)(C)CC2=O)c(Cl)c2c1S(=O)(=O)CC2` [A-10, 4-chloro-7-methyl-5-(5,5-dimethyl-1,3-dioxocyclohexan-2-yl)carbonyl-2,3-dihydrobenzothiophene-1,1-dioxide], the “Chemical injury” value by setting is: under setting [1], 1; under setting [2], 3.

`Cc1cc(C(=O)C2=C(O)CCC(C)(C)C2=O)c(Cl)c2c1S(=O)(=O)CC2` [A-11, 4-chloro-7-methyl-5-(4,4-dimethyl-1,3-dioxocyclohexan-2-yl)carbonyl-2,3-dihydrobenzothiophene-1,1-dioxide]: the “Chemical injury” value by setting is: under setting [1], 1; under setting [2], 3.

Take `CC1CC(=O)C(C(=O)c2ccc3c(c2Cl)CCS3(=O)=O)=C(O)C1` (centres unmarked) [A-12, 4-chloro-5-(5-methyl-1,3-dioxocyclohexan-2-yl)carbonyl-2,3-dihydrobenzothiophene-1,1-dioxide]: the “Chemical injury” value is listed as 1 under setting [1] and 2 under setting [2].

Regarding `CC1CC(C)(C)C(=O)C(C(=O)c2ccc3c(c2Cl)CCS3(=O)=O)=C1O` (centres unmarked) [A-13, 4-chloro-5-(4,4,6-trimethyl-1,3-dioxocyclohexan-2-yl)carbonyl-2,3-dihydrobenzothiophene-1,1-dioxide], the “Chemical injury” value reads like this: under setting [1], 1; under setting [2], 3.

`CC1CC(C)C(O)=C(C(=O)c2ccc3c(c2Cl)CCS3(=O)=O)C1=O` (centres unmarked) [A-14, 4-chloro-5-(4,6-dimethyl-1,3-dioxocyclohexan-2-yl)carbonyl-2,3-dihydrobenzothiophene-1,1-dioxide]: the “Chemical injury” value runs as follows: under setting [1], 1; under setting [2], 2.

For the compound `CC1(C)CC(C)(C)C(=O)C(C(=O)c2ccc3c(c2Cl)CCS3(=O)=O)C1=O` [A-15, 4-chloro-5-(4,4,6,6-tetramethyl-1,3-dioxocyclohexan-2-yl)carbonyl-2,3-dihydrobenzothiophene-1,1-dioxide], the “Chemical injury” value reads like this: under setting [1], 1; under setting [2], 3.

Take `CC1CC(O)=C(C(=O)c2ccc3c(c2Cl)CCS3(=O)=O)C(=O)C1C` (centres unmarked) [A-16, 4-chloro-5-(4,5-dimethyl-1,3-dioxocyclohexan-2-yl)carbonyl-2,3-dihydrobenzothiophene-1,1-dioxide]: the “Chemical injury” value reads like this: under setting [1], 1; under setting [2], 3.

Take `CC1Cc2c(ccc(C(=O)C3=C(O)CCCC3=O)c2Cl)S1(=O)=O` (centres unmarked) [A-17, 4-chloro-2-methyl-5-(1,3-dioxocyclohexan-2-yl)carbonyl-2,3-dihydrobenzothiophene-1,1-dioxide]: the “Chemical injury” value is given as 0 under setting [1] and 1 under setting [2].

Regarding `COc1c(C(=O)C2=C(O)CCCC2=O)ccc2c1CC(C)S2(=O)=O` (centres unmarked) [A-18, 4-methoxy-2-methyl-5-(1,3-dioxocyclohexan-2-yl)carbonyl-2,3-dihydrobenzothiophene-1,1-dioxide], the “Chemical injury” value runs as follows: under setting [1], 0; under setting [2], 1.

`O=C1CCCC([O-])=C1C(=O)c1ccc2c(c1Cl)CCS2(=O)=O.[Na+]` [A-19, Sodium Salt of 4-chloro-5-(1,3-dioxocyclohexan-2-yl)carbonyl-2,3-dihydrobenzothiophene-1,1-dioxide]: the “Chemical injury” value runs as follows: under setting [1], 0; under setting [2], 1.

As to `O=C1CCCC(=O)C1C(=O)c1ccc2c(c1Br)CCS2(=O)=O` [A-20, 4-bromo-5-(1,3-dioxocyclohexan-2-yl)carbonyl-2,3-dihydrobenzothiophene-1,1-dioxide], the “Chemical injury” value stood at 0 under setting [1] and 0 under setting [2].

In the case of `N#Cc1c(C(=O)C2C(=O)CCCC2=O)ccc2c1CCS2(=O)=O` [A-21, 4-cyano-5-(1,3-dioxocyclohexan-2-yl)carbonyl-2,3-dihydrobenzothiophene-1,1-dioxide], the “Chemical injury” value was 0 under setting [1] and 0 under setting [2].

Turning to `O=C1CCCC(Cl)=C1C(=O)c1ccc2c(c1Cl)CCS2(=O)=O` [B-1], the “Chemical injury” value reads like this: (dose 100 g/ha) 0; (dose 200 g/ha) 0.

In the case of `CCSC1=C(C(=O)c2ccc3c(c2Cl)CCS3(=O)=O)C(=O)CCC1` [B-2], the “Chemical injury” value is listed as 0 (dose 100 g/ha) and 0 (dose 200 g/ha).

For the compound `O=C1CCCC(Sc2ccccc2)=C1C(=O)c1ccc2c(c1Cl)CCS2(=O)=O` [B-3], the “Chemical injury” value is 0 (dose 100 g/ha) and 0 (dose 200 g/ha).

For `Cc1cc(C(=O)C2=C(Cl)CCCC2=O)c(Cl)c2c1S(=O)(=O)CC2` [B-4], the “Chemical injury” value runs as follows: (dose 100 g/ha) 1; (dose 200 g/ha) 2.

On to `Cc1cc(C(=O)C2=C(Sc3ccccc3)CCCC2=O)c(Cl)c2c1S(=O)(=O)CC2` [B-5], for which the “Chemical injury” value (dose 100 g/ha) was determined as 0 and the “Chemical injury” value (dose 200 g/ha) came out at 0.

Take `O=C1CCCC(Br)=C1C(=O)c1ccc2c(c1Cl)CCS2(=O)=O` [B-6]: the “Chemical injury” value came to 0 (dose 100 g/ha) and 0 (dose 200 g/ha).

With `CSC1=C(C(=O)c2ccc3c(c2Cl)CCS3(=O)=O)C(=O)CCC1` [B-7], the “Chemical injury” value (dose 100 g/ha) was 0 and the “Chemical injury” value (dose 200 g/ha) is recorded as 0.

`CCCSC1=C(C(=O)c2ccc3c(c2Cl)CCS3(=O)=O)C(=O)CCC1` [B-8, 4-chloro-5-[3-(3-propyl)thio-1-oxocyclohexan-2-yl]carbonyl-2,3-dihydrobenzothiophene-1,1-dioxide]: the “Chemical injury” value was determined as 0 (dose 100 g/ha) and 0 (dose 200 g/ha).

With `CC(C)SC1=C(C(=O)c2ccc3c(c2Cl)CCS3(=O)=O)C(=O)CCC1` [B-9], the “Chemical injury” value is, setting by setting: (dose 100 g/ha) 0; (dose 200 g/ha) 0.

In the case of `CCCCSC1=C(C(=O)c2ccc3c(c2Cl)CCS3(=O)=O)C(=O)CCC1` [B-10], the “Chemical injury” value runs as follows: (dose 100 g/ha) 0; (dose 200 g/ha) 0.
